According to patent US20120202693A1 (DOW AGROSCIENCES LLC, priority 2011, published 2012):
Values joined by “and” are separate entries in the source; they are usually repeats but may differ in a detail not shown here. Equal values may be shown once.

Columns and labels:
Format in all cases: in vivo
[1] = test system: morningglory (Ipomoea hederacea, IPOHE); experiment: Postemergence herbicidal activity of mixtures in the greenhouse, visual weed control; conditions: 16 days after application
Protocol: (§1) Evaluation of Postemergence Herbicidal Activity of Mixtures in the Greenhouse
(§2) Seeds of the desired test plant species were planted in 80% mineral soil/20% grit planting mixture, which typically has a pH of 7.2 and an organic matter content of about 2.9 percent, in plastic pots with a surface area of 128 square centimeters (cm^2). The growing medium was steam sterilized. The plants were grown for 7-19 days in a greenhouse with an approximate 14-hour (h) photoperiod which was maintained at about 29° C. during the day and 26° C. during the night. Nutrients and water were added on a regular basis and supplemental lighting was provided with overhead metal halide 1000-Watt lamps as necessary. The plants were treated with postemergence foliar applications when they reached the second to fourth true leaf stage. All treatments were applied using a randomized complete block trial design, with 4 replications per treatment.
(§3) Compound requirements are based upon a 12 mL application volume at a rate of 187 liters per hectare (L/ha). Spray solutions of the mixtures were prepared by adding the stock solutions to the appropriate amount of dilution solution to form 12 mL spray solution with active ingredients in single and two way combinations. Formulated compounds were applied to the plant material with an overhead Mandel track sprayer equipped with 8002E nozzles calibrated to deliver 187 L/ha at a spray height of 18 inches ([…] (cm)) above average plant canopy. The weed spectrum included broadleaf signalgrass (Brachiaria platyphylla, BRAPP), yellow nutsedge (Cyperus esculentus, CYPES), barnyardgrass (Echinochloa crus-galli, ECHCG), momingglory (Ipomoea, hederacea, IPOHE), and Chinese sprangletop (Leptochloa chinensis, LEFCH).
(§4) The treated plants and control plants were placed in a greenhouse as described above and watered by sub-irrigation to prevent wash-off of the test compounds. Treatments were rated at 16 days after application (DAA) as compared to the untreated control plants. Visual weed control was scored on a scale of 0 to 100 percent where 0 corresponds to no injury and 100 corresponds to complete kill.
(§5) Colby's equation was used to determine the herbicidal effects expected from the mixtures (Colby, S. R. Calculation of the synergistic and antagonistic response of herbicide combinations. Weeds 1967 15, 20-22).
(§6) The following equation was used to calculate the expected activity of mixtures containing two active ingredients, A and B:
(§7) A=observed efficacy of active ingredient A at the same concentration as used in the mixture;
(§8) B=observed efficacy of active ingredient B at the same concentration as used in the mixture.

[2] = test system: broadleaf signalgrass (Brachiaria platyphylla, BRAPP); experiment: as above; conditions: 16 days after application
Protocol: as §1, §2, §3, §4, §5, §6, §7, §8

[3] = test system: Chinese sprangletop (Leptochloa chinensis, LEFCH); experiment: as above; conditions: 16 days after application
Protocol: as §1, §2, §3, §4, §5, §6, §7, §8

[4] = test system: annual bluegrass (Poa annua, POAAN); experiment: Postemergence herbicidal activity of mixtures under field conditions (vines), visual weed control; conditions: 27 days after application
Protocol: (§9) Evaluation of Postemergence Herbicidal Activity of Mixtures under Field Conditions Methodology
(§10) Trial site was located in commercially grown vines of European grape (Vitis vinifera). The trial was conducted using normal research methodology. Trial plots were between 2 m wide by […] long. All treatments were applied using a randomized complete block trial design with 3 replications per treatment. The trial sites had naturally occurring populations of weeds. The weed spectrum included, but was not limited to, ryegrass (Lolium spp, LOLSS), scented mayweed (Matricaria chamomilla, MATCH), and annual bluegrass (Poa annua, POAAN).
(§11) Treatments consisted of tank mixes of an oil dispersion of penoxsulam and commercially available formulation of glyphosate applied in water. The application volume was 250 liters per hectare (L/ha). Application was made using a precision gas hand sprayer at 250 kPA pressure using a 2 m boom with flat fan (80015VS) nozzles to broadcast the treatments to the weeds and to the soil.
(§12) […] Ratings were based on Percent (%) Visual weed control, where 0 corresponds to no control and 100 corresponds to complete control.
as §5, §6, §7, §8

[5] = test system: ryegrass (Lolium spp, LOLSS); experiment: as above; conditions: 61 days after application
Protocol: as §9, §10, §11, §12, §5, §6, §7, §8

[6] = test system: scented mayweed (Matricaria chamomilla, MATCH); experiment: as above; conditions: 27 days after application
Protocol: as §9, §10, §11, §12, §5, §6, §7, §8

[7] = test system: barnyardgrass (Echinochloa crus-galli, ECHCG); experiment: Postemergence herbicidal activity of mixtures in the greenhouse, visual weed control; conditions: 16 days after application
Protocol: as §1, §2, §3, §4, §5, §6, §7, §8

[8] = test system: yellow nutsedge (Cyperus esculentus, CYPES); experiment: as above; conditions: 16 days after application
Protocol: as §1, §2, §3, §4, §5, §6, §7, §8

[9] = Glyphosate (IPA salt) 210 grams ai/ha alone
[10] = Glyphosate 720 grams ai/ha alone
[11] = Penoxsulam 1.3 grams ai/ha alone
[12] = Penoxsulam 2.5 grams ai/ha alone
[13] = Penoxsulam 10 grams ai/ha alone
[14] = Penoxsulam 20 grams ai/ha alone

## O=C(O)CNCP(=O)(O)O [Glyphosate, N-(phosphonomethyl)glycine]
[1]; [9]
  IPOHE Obs (Observed control): 31%
[2]; Glyphosate (IPA salt) 110 grams ai/ha alone
  BRAPP Obs (Observed control): 15%
[3]; Glyphosate (IPA salt) 53 grams ai/ha alone
  LEFCH Obs (Observed control): 1%
[3]; [9]
  LEFCH Obs (Observed control): 41%
[4]; [10]
  POAAN Obs (Observed control): 93%
[5]; [10]
  LOLSS Obs (Observed control): 60%
[6]; [10]
  MATCH Obs (Observed control): 50%

## COc1cnc(OC)n2nc(NS(=O)(=O)c3c(OCC(F)F)cccc3C(F)(F)F)nc12 [Penoxsulam, 2-(2,2-difluoroethoxy)-N-(5,8-dimethoxy-[1,2,4]triazolo[1,5-c]pyrimidin-2-yl)-6-(trifluoromethyl)benzenesulfonamide]
[1]; [11]
  IPOHE Obs (Observed control): 16%
[1]; [12]
  IPOHE Obs (Observed control): 31%
[1]; Penoxsulam 5 grams ai/ha alone
  IPOHE Obs (Observed control): 31%
[1]; [13]
  IPOHE Obs (Observed control): 31%
[2]; [11]
  BRAPP Obs (Observed control): 9%
[2]; [12]
  BRAPP Obs (Observed control): 10%
[2]; Penoxsulam 5 grams ai/ha alone
  BRAPP Obs (Observed control): 4%
[7]; [11]
  ECHCG Obs (Observed control): 63%
[7]; [12]
  ECHCG Obs (Observed control): 62%
[8]; [11]
  CYPES Obs (Observed control): 5.8% and 6%
[8]; [12]
  CYPES Obs (Observed control): 31.8% and 32%
[8]; Penoxsulam 5 grams ai/ha alone
  CYPES Obs (Observed control): 44%
[8]; [13]
  CYPES Obs (Observed control): 65%
[3]; [11]
  LEFCH Obs (Observed control): 5%
[3]; [12]
  LEFCH Obs (Observed control): 1%
[3]; Penoxsulam 5 grams ai/ha alone
  LEFCH Obs (Observed control): 2%
[3]; [13]
  LEFCH Obs (Observed control): 6.3% and 6%
[4]; [14]
  POAAN Obs (Observed control): 0%
[5]; [14]
  LOLSS Obs (Observed control): 0%
[6]; [14]
  MATCH Obs (Observed control): 0%
